Test results taken from ChEMBL document CHEMBL4507291 (2021).

Tests used:
[1] = test system: Tyrosine-protein kinase ABL1 (Homo sapiens), P00519 [Y253F]
[2] = target: Sodium-dependent noradrenaline transporter (Homo sapiens, UniProt P23975); details: Compound concentration 10.0 uM
[3] = target: Bone morphogenetic protein receptor type-2 (Homo sapiens) (UniProt Q13873)
[4] = target: Tyrosine-protein kinase FRK (Homo sapiens) (UniProt P42685)
[5] = target: Beta-3 adrenergic receptor (Homo sapiens) (UniProt P13945); details: Compound concentration 10.0 uM
[6] = target: T1, MAP/microtubule affinity-regulating kinase 4 (Homo sapiens) (UniProt Q96L34)
T1 sequence (whole entry): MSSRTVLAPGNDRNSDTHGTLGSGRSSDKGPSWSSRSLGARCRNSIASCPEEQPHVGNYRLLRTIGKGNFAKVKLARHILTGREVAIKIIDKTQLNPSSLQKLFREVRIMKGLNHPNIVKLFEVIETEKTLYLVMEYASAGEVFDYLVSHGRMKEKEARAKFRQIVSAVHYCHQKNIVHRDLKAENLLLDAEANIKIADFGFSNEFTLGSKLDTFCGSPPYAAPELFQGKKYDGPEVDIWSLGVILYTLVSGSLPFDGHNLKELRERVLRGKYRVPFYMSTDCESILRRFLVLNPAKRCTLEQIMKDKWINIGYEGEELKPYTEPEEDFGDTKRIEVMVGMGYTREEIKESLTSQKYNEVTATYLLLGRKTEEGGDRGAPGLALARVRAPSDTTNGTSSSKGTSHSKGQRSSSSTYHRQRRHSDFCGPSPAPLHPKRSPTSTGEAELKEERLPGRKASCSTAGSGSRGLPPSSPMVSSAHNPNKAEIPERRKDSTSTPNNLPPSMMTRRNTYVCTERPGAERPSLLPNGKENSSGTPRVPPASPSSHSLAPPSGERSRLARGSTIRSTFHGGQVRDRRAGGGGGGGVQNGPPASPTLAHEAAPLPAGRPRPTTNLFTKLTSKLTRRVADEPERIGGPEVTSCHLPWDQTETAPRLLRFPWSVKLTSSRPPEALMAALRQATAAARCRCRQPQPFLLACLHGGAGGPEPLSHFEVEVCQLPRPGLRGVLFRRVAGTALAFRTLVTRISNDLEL

[7] = test system: Phosphatidylinositol 4,5-bisphosphate 3-kinase catalytic subunit alpha isoform (Homo sapiens), P42336 [Q546K]
[8] = target: Tyrosine-protein kinase JAK1 (Homo sapiens) (UniProt P23458)
[9] = target: Proto-oncogene tyrosine-protein kinase receptor Ret (Homo sapiens) (UniProt P07949)
[10] = test system: Receptor-type tyrosine-protein kinase FLT3 (Homo sapiens), P36888 [R834Q]
[11] = test system: Epidermal growth factor receptor (Homo sapiens), P00533 [UNDEFINED MUTATION]
[12] = test system: Phosphatidylinositol 4,5-bisphosphate 3-kinase catalytic subunit alpha isoform (Homo sapiens), P42336 [C420R]
[13] = target: Dual specificity mitogen-activated protein kinase kinase 4 (Homo sapiens) (UniProt P45985)
[14] = target: Serine/threonine-protein kinase 25 (Homo sapiens) (UniProt O00506)
[15] = target: Mitogen-activated protein kinase 9 (Homo sapiens) (UniProt P45984)
[16] = target: D(4) dopamine receptor (Homo sapiens) (UniProt P21917); details: Compound concentration 10.0 uM
[17] = target: Fibroblast growth factor receptor 1 (Homo sapiens) (UniProt P11362)
[18] = target: NT-3 growth factor receptor (Homo sapiens) (UniProt Q16288)
[19] = target: Microtubule-associated serine/threonine-protein kinase 1 (Homo sapiens) (UniProt Q9Y2H9)
[20] = test system: Tyrosine-protein kinase ABL1 (Homo sapiens), P00519 [T315I]
[21] = target: Receptor-interacting serine/threonine-protein kinase 4 (Homo sapiens) (UniProt P57078)
[22] = test system: Tyrosine-protein kinase ABL1 (Homo sapiens), P00519 [H396P]
[23] = target: Mitogen-activated protein kinase kinase kinase 10 (Homo sapiens) (UniProt Q02779)
[24] = target: Ribosomal protein S6 kinase alpha-6 (Homo sapiens) (UniProt Q9UK32)
[25] = target: RAC-gamma serine/threonine-protein kinase (Homo sapiens) (UniProt Q9Y243)
[26] = target: Cyclin-dependent kinase 4 (Homo sapiens) (UniProt P11802)
[27] = target: Tyrosine-protein kinase ABL2 (Homo sapiens) (UniProt P42684)
[28] = target: Serine/threonine-protein kinase PLK2 (Homo sapiens) (UniProt Q9NYY3)
[29] = target: Serine/threonine-protein kinase 24 (Homo sapiens) (UniProt Q9Y6E0)
[30] = target: Serine/threonine-protein kinase RIO3 (Homo sapiens) (UniProt O14730)
[31] = target: Serine/threonine-protein kinase TAO1 (Homo sapiens) (UniProt Q7L7X3)
[32] = target: Kappa-type opioid receptor (Homo sapiens) (UniProt P41145); details: Compound concentration 10.0 uM
[33] = target: Cyclin-dependent kinase-like 1 (Homo sapiens) (UniProt Q00532)
[34] = target: RAC-beta serine/threonine-protein kinase (Homo sapiens) (UniProt P31751)
[35] = target: Serine/threonine-protein kinase MRCK alpha (Homo sapiens) (UniProt Q5VT25)
[36] = Compound concentration 100.0 nM
[37] = Compound concentration 1000.0 nM

Sequence of Cyclin-dependent kinase 4 (Homo sapiens) (P11802 whole entry): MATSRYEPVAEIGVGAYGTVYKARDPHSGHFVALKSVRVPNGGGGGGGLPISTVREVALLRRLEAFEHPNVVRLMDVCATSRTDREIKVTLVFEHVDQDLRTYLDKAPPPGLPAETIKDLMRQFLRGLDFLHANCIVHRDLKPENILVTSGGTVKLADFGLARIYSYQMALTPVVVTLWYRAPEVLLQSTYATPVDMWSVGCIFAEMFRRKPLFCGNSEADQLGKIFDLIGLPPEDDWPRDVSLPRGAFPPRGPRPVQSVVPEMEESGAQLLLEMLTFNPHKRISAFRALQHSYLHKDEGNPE
Sequence of Tyrosine-protein kinase JAK1 (Homo sapiens) (P23458 whole entry): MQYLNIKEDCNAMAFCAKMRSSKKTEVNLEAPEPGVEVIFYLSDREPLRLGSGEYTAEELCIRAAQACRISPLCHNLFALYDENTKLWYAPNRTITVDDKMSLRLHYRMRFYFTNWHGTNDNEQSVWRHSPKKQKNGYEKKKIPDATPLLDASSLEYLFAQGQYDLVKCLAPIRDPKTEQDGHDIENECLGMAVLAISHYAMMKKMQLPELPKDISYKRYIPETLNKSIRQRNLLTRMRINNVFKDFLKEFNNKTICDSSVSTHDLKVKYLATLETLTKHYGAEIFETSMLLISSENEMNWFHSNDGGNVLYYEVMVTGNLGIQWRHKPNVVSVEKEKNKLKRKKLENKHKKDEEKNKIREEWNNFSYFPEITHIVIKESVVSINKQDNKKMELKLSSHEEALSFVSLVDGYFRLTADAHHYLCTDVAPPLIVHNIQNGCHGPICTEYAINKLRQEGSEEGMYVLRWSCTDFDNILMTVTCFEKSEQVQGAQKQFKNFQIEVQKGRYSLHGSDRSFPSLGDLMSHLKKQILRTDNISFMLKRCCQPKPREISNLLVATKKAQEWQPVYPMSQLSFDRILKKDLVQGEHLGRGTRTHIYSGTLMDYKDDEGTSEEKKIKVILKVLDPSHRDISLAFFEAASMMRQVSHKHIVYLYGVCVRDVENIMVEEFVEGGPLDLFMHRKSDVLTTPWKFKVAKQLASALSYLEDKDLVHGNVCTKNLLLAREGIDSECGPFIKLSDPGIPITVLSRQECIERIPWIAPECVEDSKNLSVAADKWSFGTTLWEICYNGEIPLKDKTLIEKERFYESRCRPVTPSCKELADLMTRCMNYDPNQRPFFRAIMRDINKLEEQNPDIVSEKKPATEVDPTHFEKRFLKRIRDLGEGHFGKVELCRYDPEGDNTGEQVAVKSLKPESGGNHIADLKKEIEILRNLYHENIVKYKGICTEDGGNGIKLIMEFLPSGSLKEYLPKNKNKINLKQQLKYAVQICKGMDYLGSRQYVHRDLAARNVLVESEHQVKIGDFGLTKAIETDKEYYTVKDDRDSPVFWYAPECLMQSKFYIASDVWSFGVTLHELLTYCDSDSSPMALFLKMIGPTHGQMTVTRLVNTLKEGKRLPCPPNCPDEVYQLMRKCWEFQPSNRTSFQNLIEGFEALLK
Sequence of D(4) dopamine receptor (Homo sapiens) (P21917 whole entry): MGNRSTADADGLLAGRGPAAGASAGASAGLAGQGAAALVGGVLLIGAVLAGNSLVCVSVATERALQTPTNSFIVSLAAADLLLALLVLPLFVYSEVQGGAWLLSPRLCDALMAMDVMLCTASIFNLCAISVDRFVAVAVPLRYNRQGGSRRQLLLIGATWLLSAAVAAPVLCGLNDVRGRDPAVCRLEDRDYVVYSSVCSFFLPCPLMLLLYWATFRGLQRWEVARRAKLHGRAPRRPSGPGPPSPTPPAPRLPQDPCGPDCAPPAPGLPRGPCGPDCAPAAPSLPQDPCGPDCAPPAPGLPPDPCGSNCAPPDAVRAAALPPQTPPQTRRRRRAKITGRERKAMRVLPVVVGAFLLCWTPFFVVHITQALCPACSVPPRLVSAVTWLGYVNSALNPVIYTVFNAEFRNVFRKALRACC
Sequence of Beta-3 adrenergic receptor (Homo sapiens) (P13945 whole entry, looked up): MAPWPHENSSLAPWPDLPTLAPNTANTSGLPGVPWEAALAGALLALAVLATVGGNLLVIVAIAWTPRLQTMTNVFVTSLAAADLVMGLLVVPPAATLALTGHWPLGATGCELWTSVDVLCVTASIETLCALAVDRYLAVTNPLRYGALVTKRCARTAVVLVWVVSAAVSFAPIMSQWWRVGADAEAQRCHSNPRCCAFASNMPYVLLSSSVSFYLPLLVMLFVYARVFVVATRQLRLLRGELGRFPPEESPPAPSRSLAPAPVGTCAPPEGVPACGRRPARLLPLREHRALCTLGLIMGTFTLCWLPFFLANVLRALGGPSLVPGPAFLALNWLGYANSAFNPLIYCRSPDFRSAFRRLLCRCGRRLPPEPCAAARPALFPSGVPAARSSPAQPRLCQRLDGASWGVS
Sequence of Serine/threonine-protein kinase 25 (Homo sapiens) (O00506 whole entry, looked up): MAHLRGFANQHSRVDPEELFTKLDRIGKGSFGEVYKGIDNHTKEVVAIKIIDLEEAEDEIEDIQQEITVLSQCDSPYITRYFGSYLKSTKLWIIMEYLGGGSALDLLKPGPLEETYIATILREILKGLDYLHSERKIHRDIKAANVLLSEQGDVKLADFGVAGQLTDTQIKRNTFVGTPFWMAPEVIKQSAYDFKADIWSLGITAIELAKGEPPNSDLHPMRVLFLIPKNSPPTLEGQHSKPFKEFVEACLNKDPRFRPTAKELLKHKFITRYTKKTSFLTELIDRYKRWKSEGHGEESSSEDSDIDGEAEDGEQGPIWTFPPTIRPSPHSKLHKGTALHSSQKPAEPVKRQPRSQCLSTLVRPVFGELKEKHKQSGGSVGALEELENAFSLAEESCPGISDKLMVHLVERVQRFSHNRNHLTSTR
Sequence of NT-3 growth factor receptor (Homo sapiens) (Q16288 32-839 limits assumed): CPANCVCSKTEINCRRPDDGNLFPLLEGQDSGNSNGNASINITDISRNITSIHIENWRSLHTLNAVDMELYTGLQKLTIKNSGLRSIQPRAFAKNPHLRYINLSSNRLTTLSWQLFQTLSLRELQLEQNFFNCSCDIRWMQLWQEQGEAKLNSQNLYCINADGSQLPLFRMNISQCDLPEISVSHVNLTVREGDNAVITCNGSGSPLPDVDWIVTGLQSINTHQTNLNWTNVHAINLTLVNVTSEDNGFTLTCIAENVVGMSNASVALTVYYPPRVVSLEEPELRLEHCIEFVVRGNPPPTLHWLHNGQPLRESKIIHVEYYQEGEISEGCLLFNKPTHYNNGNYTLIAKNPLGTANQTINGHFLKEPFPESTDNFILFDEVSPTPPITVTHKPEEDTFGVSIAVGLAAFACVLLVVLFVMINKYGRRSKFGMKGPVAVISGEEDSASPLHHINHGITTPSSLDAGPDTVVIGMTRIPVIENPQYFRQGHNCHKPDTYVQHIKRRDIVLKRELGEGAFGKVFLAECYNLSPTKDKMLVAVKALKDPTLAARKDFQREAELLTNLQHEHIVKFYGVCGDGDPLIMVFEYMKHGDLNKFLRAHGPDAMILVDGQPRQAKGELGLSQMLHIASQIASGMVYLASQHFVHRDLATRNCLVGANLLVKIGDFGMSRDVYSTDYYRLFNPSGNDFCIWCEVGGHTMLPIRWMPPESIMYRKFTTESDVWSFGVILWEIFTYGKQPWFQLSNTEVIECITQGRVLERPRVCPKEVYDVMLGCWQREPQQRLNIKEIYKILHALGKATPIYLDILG
Sequence of RAC-gamma serine/threonine-protein kinase (Homo sapiens) (Q9Y243 whole entry): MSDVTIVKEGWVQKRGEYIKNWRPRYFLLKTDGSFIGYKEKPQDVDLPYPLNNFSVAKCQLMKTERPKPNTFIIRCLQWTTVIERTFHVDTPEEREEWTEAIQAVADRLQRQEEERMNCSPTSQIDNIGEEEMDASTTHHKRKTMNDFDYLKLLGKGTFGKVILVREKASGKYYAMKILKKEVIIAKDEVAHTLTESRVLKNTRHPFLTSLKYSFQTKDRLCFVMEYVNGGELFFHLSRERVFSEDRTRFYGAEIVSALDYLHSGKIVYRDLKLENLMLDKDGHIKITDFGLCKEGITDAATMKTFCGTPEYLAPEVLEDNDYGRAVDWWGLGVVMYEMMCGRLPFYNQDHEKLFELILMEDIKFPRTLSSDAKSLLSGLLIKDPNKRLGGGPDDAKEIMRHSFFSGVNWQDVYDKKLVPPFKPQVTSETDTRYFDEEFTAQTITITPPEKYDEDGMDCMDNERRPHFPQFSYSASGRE
Sequence of Dual specificity mitogen-activated protein kinase kinase 4 (Homo sapiens) (P45985 whole entry): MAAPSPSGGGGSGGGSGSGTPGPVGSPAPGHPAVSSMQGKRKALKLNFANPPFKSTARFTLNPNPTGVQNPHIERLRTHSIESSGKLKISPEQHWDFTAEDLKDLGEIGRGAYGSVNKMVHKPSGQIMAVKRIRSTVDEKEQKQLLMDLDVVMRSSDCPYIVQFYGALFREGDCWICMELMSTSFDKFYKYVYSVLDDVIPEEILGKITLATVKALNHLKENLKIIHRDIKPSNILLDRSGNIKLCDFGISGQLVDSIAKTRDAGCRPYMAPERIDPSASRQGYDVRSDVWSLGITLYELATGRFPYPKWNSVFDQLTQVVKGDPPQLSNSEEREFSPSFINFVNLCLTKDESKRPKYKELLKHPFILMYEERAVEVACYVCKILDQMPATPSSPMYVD
Sequence of Kappa-type opioid receptor (Homo sapiens) (P41145 whole entry): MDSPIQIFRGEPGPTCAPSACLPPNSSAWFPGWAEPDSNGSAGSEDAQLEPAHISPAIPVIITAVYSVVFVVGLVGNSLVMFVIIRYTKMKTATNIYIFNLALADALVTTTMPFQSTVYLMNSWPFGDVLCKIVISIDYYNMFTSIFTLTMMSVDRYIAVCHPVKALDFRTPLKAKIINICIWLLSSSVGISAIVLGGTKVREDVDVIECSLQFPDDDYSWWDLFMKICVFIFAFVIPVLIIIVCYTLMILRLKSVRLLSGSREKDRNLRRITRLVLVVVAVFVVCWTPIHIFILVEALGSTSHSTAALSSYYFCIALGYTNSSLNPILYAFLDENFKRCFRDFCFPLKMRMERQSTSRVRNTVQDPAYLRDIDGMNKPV

C[C@@H]1CN(c2cc(-c3n[nH]c4ccc(OC5(C)CC5)cc34)ncn2)C[C@H](C)O1 [MLi-2]
residual activity [1, 36]: 66% | inhibition [2]: 7.45% | residual activity [3, 36]: 75% | residual activity [4, 36]: 100% | inhibition [5]: -5.99% | residual activity [6, 36]: 100% | residual activity [7, 36]: 69% | residual activity [8, 36]: 79% | residual activity [9, 36]: 100% | residual activity [10, 36]: 78% | residual activity [11, 36]: 53% | residual activity [12, 36]: 72% | residual activity [13, 36]: 73% | residual activity [14, 36]: 100% | residual activity [15, 36]: 72% | inhibition [16]: -4.87% | residual activity [17, 36]: 100% | residual activity [18, 36]: 86% | residual activity [19, 36]: 70% | residual activity [20, 36]: 72% | residual activity [21, 36]: 48% | residual activity [22, 36]: 96% | residual activity [23, 36]: 100% | residual activity [24, 36]: 77% | residual activity [25, 36]: 86% | residual activity [26, 36]: 97% | residual activity [27, 36]: 73% | residual activity [28, 36]: 76% | residual activity [29, 36]: 96% | residual activity [30, 36]: 100% | residual activity [31, 36]: 86% | inhibition [32]: -0.6% | residual activity [33, 36]: 89% | residual activity [34, 36]: 100% | residual activity [35, 36]: 90%

C[C@@H]1CN(c2cc(-c3nn(C)c4ccc(OC5(C)CC5)cc34)ncn2)C[C@H](C)O1 [MLi-2-NC]
residual activity [1, 37]: 80% | inhibition [2]: 30.6% | residual activity [3, 37]: 54% | residual activity [4, 37]: 100% | inhibition [5]: 11.8% | residual activity [6, 37]: 100% | residual activity [7, 37]: 39% | residual activity [8, 37]: 84% | residual activity [9, 37]: 96% | residual activity [10, 37]: 90% | residual activity [11, 37]: 67% | residual activity [12, 37]: 100% | residual activity [13, 37]: 82% | residual activity [14, 37]: 100% | residual activity [15, 37]: 78% | inhibition [16]: -2.65% | residual activity [17, 37]: 100% | residual activity [18, 37]: 65% | residual activity [19, 37]: 100% | residual activity [20, 37]: 73% | residual activity [21, 37]: 85% | residual activity [22, 37]: 75% | residual activity [23, 37]: 100% | residual activity [24, 37]: 78% | residual activity [25, 37]: 100% | residual activity [26, 37]: 71% | residual activity [27, 37]: 100% | residual activity [28, 37]: 68% | residual activity [29, 37]: 79% | residual activity [30, 37]: 100% | residual activity [31, 37]: 82% | inhibition [32]: 13.1% | residual activity [33, 37]: 89% | residual activity [34, 37]: 89% | residual activity [35, 37]: 89%
